pIC50: −log10 of the molar value.
Legend:
[1] = Sulforhodamine B (SRB) growth inhibition / cytotoxicity assay; type: cell-based; settings: SRB growth arrest assay; cell line not stated
Description: A growth inhibition assay was also employed for the evaluation of candidate HSP90 inhibitors:
• 1) Determine cell number by haemocytometer. • 2) Using an 8 channel multipipettor, add 160 μl of the cell suspension (3600 cells/well or 2×10^4 cells/ml) to each well of a 96-well microtitre plate. • 3) Incubate overnight at 37° C. in a CO2 incubator. Day 2 • 4) Stock solutions of drugs are prepared, and serial dilutions of each drug are performed in medium to give final concentrations in wells. • 5) Using a multipipettor, 40 μl of drug (at 5× final concentration) is added to quadruplicate wells. • 6) Control wells are at either side of the 96 well plates, where 40 μl of medium is added. • 7) Incubate plates in CO2 incubator for 4 days (48 hours). Day 6 • 8) Tip off medium into sink and immerse plate slowly into 10% ice cold trichloroacetic acid (TCA). […] Leave for 15 mins. • 12) Wash off unbound SRB stain with four washes of 1% acetic acid. • 13) Dry plates in incubator. • 14) Solubilise SRB using 100 μl of 10 mM Tris base and put plates on plate shaker for 5 mins. • 15) Determine absorbance at 540 nm using a plate reader. Calculate mean absorbance for quadruplicate wells and express as a percentage of value for control, untreated wells. • 16) Plot % absorbance values versus log drug concentration and determine the IC50.

[2] = biological target: T1, yeast HSP90 (Saccharomyces cerevisiae, UniProt P02829); assay: Malachite green ATPase assay; type: biochemical; settings: activity range
T1 construct: made in house; host or cells: E. coli
Excerpt: The intrinsic ATPase activity of HSP90 may be measured using yeast HSP90 as a model system. The assay, based on the use of malachite green for the measurement of inorganic phosphate, was used to test the HSP90 inhibitory activity of the compounds of the Examples herein.
Malachite Green ATPase Assay
Chemicals are of the highest purity commercially available and all aqueous solutions are made up in AR water. Because of the need to minimise contamination with inorganic phosphate, precautions should be taken with solutions and apparatus used in the assays. Glassware and pH meters are rinsed with double distilled or deionised water before use and, wherever possible, plastic ware should be used. Gloves are worn for all procedures. • (1) Greiner 384-well (Greiner 781101) or Costar 384-well flat-bottomed polystyrene multiwell plates (VWR). • (2) Assay buffer of (a) 100 mM Tris-HCl, pH 7.4, (b) 150 mM KCI, (c) 6 mM MgCl2. Stored at room temperature. • (3) 0.0812% (w/v) malachite green (M 9636, Sigma Aldrich Ltd., Poole, UK). Stored at room temperature. • (4) 2.32% (w/v) polyvinyl alcohol USP (P 1097, Sigma Aldrich Ltd, Poole, UK) in boiling water (see Comment 1), allowed to cool, and stored at room temperature. • (5) 5.72% (w/v) ammonium molybdate in 6 M hydrochloric acid. Stored at room temperature. • (6) 34% (w/v) sodium citrate. Stored at room temperature. • (7) 100 mM ATP, disodium salt, special quality (47699, Sigma Aldrich). Stored at −20° C. • (8) E. coli expressed yeast HSP90 protein, purified >95% (see, e.g., Panaretou et al., 1998) and stored in 50 uL aliquots at −80° C. Method • 1. Dilute test compounds to 500 μM in AR water (DMSO concentration will be 2.5%). Transfer 2.5 μl of these compounds directly from the daughter plate to the assay plate, giving a final assay concentration of 100 μM. To obtain 12 point IC50 values, perform serial dilutions 1:2 to produce a range of assay concentrations from 100 μM to 97.6 nM (2.5% DMSO), and transfer 2.5 μl of each concentration into the assay plate. Column 1 in the assay plate contains no compound, as a negative control. An additional row with no compound is also used as a background. • 2. Prepare ATP by diluting 100 mM stock to 925 μM with assay buffer, and aliquot 5 μl of diluted ATP to each well including controls (final assay concentration 370 μM). • 3. Add 5 μl of buffer to background row. • 4. Dilute enzyme preparation to 1.05 μM with assay buffer, and aliquot 5 μl into each compound well and to the negative control column. • 5. Collect the reagents to the bottom of the well, cover plate with plate seal and incubate overnight at 37 degC. • 6. First thing in the morning prepare the Malachite Green Reagent. Add 2 parts of Malachite Green Solution, 1 part of Polyvinyl Alcohol Solution, 1 part of Ammonium Molybdate Solution, and 2 parts of AR water. • 7. Invert to mix, and leave for approximately 1 hour until the colour turns from brown to golden yellow. • 8. Add 40 μl of Malachite Green Reagent to each well, allow 5 mins for colour to develop. • 9. Add 5 μl of Sodium Citrate Reagent to each well (see comment 2) • 10. Re-cover with plate seal and shake on plate shaker for at least 15 mins. • 11. Measure Absorbance at 620 nm using a suitable plate reader (e.g. Victor, Perkin Elmer Life Sciences, Milton Keynes, UK). […] Comments • (1) The polyvinyl alcohol dissolves in boiling water with difficulty and stirring for 2-3 h is required. • (2) The time interval between addition of the malachite green reagent and the sodium citrate should be kept as short as possible in order to reduce the non-enzymatic hydrolysis of ATP. Once the sodium citrate is added, the colour is stable for up to 4 h at room temperature. • (3) Compounds can be added to the assay plates using a Biomek FX Robot (Beckman Coulter).

T1 sequence (P02829 whole entry, looked up): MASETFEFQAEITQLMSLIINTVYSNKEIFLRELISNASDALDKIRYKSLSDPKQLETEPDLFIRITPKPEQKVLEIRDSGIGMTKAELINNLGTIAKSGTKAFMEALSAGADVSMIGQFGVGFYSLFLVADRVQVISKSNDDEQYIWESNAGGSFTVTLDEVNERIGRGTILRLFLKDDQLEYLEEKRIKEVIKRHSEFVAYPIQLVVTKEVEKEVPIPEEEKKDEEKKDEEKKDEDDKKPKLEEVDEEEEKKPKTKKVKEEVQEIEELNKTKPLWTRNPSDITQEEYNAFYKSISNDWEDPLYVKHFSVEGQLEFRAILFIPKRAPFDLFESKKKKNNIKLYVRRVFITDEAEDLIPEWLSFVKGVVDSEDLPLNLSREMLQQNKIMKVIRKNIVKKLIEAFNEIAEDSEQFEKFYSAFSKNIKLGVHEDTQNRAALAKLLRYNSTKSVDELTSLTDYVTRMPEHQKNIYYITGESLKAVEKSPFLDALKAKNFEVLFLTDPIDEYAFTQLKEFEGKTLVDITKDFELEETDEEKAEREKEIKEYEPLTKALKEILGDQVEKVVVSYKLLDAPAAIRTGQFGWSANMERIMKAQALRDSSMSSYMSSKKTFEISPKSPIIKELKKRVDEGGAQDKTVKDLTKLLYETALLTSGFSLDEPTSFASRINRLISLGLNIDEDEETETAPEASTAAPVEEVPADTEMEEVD

| pIC50 [2] | Structure (SMILES) | pIC50 [1] |
| --- | --- | --- |
|  | CC(=O)c1ccc(NC(=O)c2c[nH]nc2-c2cc(Cl)c(O)cc2O)cc1 [Example 1, 3-(5-chloro-2,4-dihydroxy-phenyl)-1H-pyrazole-4-carboxylic acid (4-acetyl-phenyl)-amide] | < 4.30 |
| < 4.30 | O=C(Nc1ccccc1)c1c[nH]nc1-c1cc(Cl)c(O)cc1O [Example 2] |  |
| < 4.30 | O=C(c1c[nH]nc1-c1cc(Cl)c(O)cc1O)N1CCN(c2ccccc2)CC1 [Example 3] |  |
| < 4.30 | C=CCNC(=O)c1c[nH]nc1-c1cc(Cl)c(O)cc1O [Example 4] |  |
| < 4.30 | O=C(c1c[nH]nc1-c1cc(Cl)c(O)cc1O)N1CCOCC1 [Example 5] |  |
| < 4.30 | CN1CCN(C(=O)c2c[nH]nc2-c2cc(Cl)c(O)cc2O)CC1 [Example 6] |  |
| < 4.30 | O=C(NCCCN1CCOCC1)c1c[nH]nc1-c1cc(Cl)c(O)cc1O [Example 7] |  |
| < 4.30 | O=C(Nc1ccccn1)c1c[nH]nc1-c1cc(Cl)c(O)cc1O [Example 8] |  |
| > 4.30 | O=C(NCc1ccco1)c1c[nH]nc1-c1cc(Cl)c(O)cc1O [Example 9] |  |
| > 4.30 | O=C(NCCc1cccs1)c1c[nH]nc1-c1cc(Cl)c(O)cc1O [Example 10] |  |
| < 4.30 | O=C(NCCN1CCOCC1)c1c[nH]nc1-c1cc(Cl)c(O)cc1O [Example 11] |  |
| < 4.30 | O=C(NCCCO)c1c[nH]nc1-c1cc(Cl)c(O)cc1O [Example 12] |  |
| > 4.30 | O=C(Nc1ccc(O)cc1)c1c[nH]nc1-c1cc(Cl)c(O)cc1O [Example 13] |  |
| > 4.30 | COc1cccc(NC(=O)c2c[nH]nc2-c2cc(Cl)c(O)cc2O)c1 [Example 14] |  |
| > 4.30 | O=C(Nc1ccc2c(c1)OCCO2)c1c[nH]nc1-c1cc(Cl)c(O)cc1O [Example 15] |  |
| < 4.30 | O=C(Nc1ccc(O)c(O)c1)c1c[nH]nc1-c1cc(Cl)c(O)cc1O [Example 16] |  |

| pIC50 [2] | Structure (SMILES) | pIC50 [1] |
| --- | --- | --- |
| > 4.30 | COc1ccc(NC(=O)c2c[nH]nc2-c2cc(Cl)c(O)cc2O)cc1 [Example 17] |  |
| < 4.30 | O=C(Nc1ccc(Cl)cc1)c1c[nH]nc1-c1cc(Cl)c(O)cc1O [Example 18] |  |
| < 4.30 | CC(=O)Nc1ccc(NC(=O)c2c[nH]nc2-c2cc(Cl)c(O)cc2O)cc1 [Example 19] |  |
| > 4.30 | COC(=O)c1ccc(NC(=O)c2c[nH]nc2-c2cc(Cl)c(O)cc2O)cc1 [Example 20] |  |
| > 4.30 | NC(=O)c1ccc(NC(=O)c2c[nH]nc2-c2cc(Cl)c(O)cc2O)cc1 [Example 22] |  |
| < 4.30 | O=C(NCc1ccccc1)c1c[nH]nc1-c1cc(Cl)c(O)cc1O [Example 23] |  |
| < 4.30 | O=C(O)Cc1ccc(NC(=O)c2c[nH]nc2-c2cc(Cl)c(O)cc2O)cc1 [Example 24] |  |
| < 4.30 | COc1ccc(N(C)C(=O)c2c[nH]nc2-c2cc(Cl)c(O)cc2O)cc1 [Example 25] |  |
| > 4.30 | O=C(O)c1ccc(CNC(=O)c2c[nH]nc2-c2cc(Cl)c(O)cc2O)cc1 [Example 26] |  |
| > 4.30 | Cc1ccc(CNC(=O)c2c[nH]nc2-c2cc(Cl)c(O)cc2O)cc1 [Example 27] |  |
| > 4.30 | COc1ccc(CNC(=O)c2c[nH]nc2-c2cc(Cl)c(O)cc2O)cc1 [Example 28] |  |
| > 4.30 | O=C(NCc1ccc(F)cc1)c1c[nH]nc1-c1cc(Cl)c(O)cc1O [Example 29] |  |
| > 4.30 | O=C(NCc1ccc(Cl)cc1)c1c[nH]nc1-c1cc(Cl)c(O)cc1O [Example 30] |  |
| > 4.30 | COc1cccc(CNC(=O)c2c[nH]nc2-c2cc(Cl)c(O)cc2O)c1 [Example 31] |  |
| > 4.30 | O=C(NCc1cccc(C(F)(F)F)c1)c1c[nH]nc1-c1cc(Cl)c(O)cc1O [Example 32] |  |
| > 4.30 | CS(=O)(=O)c1ccc(CNC(=O)c2c[nH]nc2-c2cc(Cl)c(O)cc2O)cc1 [Example 33] |  |

Source: US7803831B2, “3-(2-hydroxy-phenyl)-1H-pyrazole-4-carboxylic acid amide derivatives as HSP90 inhibitors for the treatment of cancer” (Vernalis (Cambridge) Limited, priority 2002, dated 2010)
